Starred links: 1 amine or outer side, 2 acyl side, 3 side chain; linkers in the order of their positions; H or OH if unused. Positions of bridges follow the written chain, without caps; N, C: chain ends. Non-standard residues stand in square brackets, D forms with d. Residues, ends and D or L forms follow the SMILES beside them. ξ: configuration not given here. *: point of attachment. X6 = C[N+](C)(C)CCCCCCCc1cn(-c2ccc(C[C@H](N[*:1])C(=O)[*:2])cc2)nn1; Me3N+(CH2)2O(CH2)2O(CH2)2CO = C[N+](C)(C)CCOCCOCCC(=O)*; Trp(7-Me) = Cc1cccc2c(C[C@H](N)C(=O)O)c[nH]c12; 2Nal = N[C@@H](Cc1ccc2ccccc2c1)C(=O)O; 3Pal = N[C@@H](Cc1cccnc1)C(=O)O; ξThr(3R) = C[C@@H](O)C(N)C(=O)O; Lys(Me) = CNCCCC[C@H](N)C(=O)O; Pen = CC(C)(S)[C@H](N)C(=O)O; Thp = NC1(C(=O)O)CCOCC1; X3 = C[N+](C)(C)CCCCC*; Sar = CNCC(=O)O
Tests used:
IL-23R = target: T1, IL-23R (Homo sapiens, UniProt Q5VWK5); assay: IL23R Reporter Assay; type: cell-based; conditions: HEK293 cells containing IL-23R, IL-12RP1 and STAT-inducible firefly luciferase reporter; 10 ng/mL IL-23 (EC90); 5 h at 37° C.; read-out: IL23R Reporter Assay
T1 construct: host or cells: HEK293
T1 sequence (Q5VWK5 24-629): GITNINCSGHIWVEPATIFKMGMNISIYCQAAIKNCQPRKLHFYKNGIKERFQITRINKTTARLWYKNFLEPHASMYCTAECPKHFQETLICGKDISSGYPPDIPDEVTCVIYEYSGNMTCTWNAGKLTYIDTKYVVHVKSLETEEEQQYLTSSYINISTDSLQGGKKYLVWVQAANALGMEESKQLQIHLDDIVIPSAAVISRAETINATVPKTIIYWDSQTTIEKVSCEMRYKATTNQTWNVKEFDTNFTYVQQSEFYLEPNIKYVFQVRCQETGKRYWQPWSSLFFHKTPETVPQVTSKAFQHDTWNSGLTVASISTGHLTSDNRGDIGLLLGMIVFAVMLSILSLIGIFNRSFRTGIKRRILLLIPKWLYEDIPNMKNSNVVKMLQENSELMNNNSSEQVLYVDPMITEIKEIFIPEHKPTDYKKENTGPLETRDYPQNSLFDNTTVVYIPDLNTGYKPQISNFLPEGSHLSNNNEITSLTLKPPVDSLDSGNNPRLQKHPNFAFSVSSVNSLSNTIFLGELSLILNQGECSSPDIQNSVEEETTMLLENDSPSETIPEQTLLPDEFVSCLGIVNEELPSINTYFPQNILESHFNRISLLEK

[1] = Exposed Polar Surface Area (EPSA); type: physicochemical; conditions: SFC on Chirex 3014 column; sample 1 mM DMSO stock; read-out: EPSA
How it was run: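 EPSA, in Å^2, is read from SFC retention time through a linear relationship established with eight calibration standards. Separation uses a Chirex 3014 stationary phase, 35 °C, 14 MPa back pressure, and a 5–60% methanol/ammonium formate modifier gradient in CO2.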

Compound	IC50 (IL-23R) [nM]	EPSA [1] [A^2]
CC(=O)N(C)CCCC[C@@H]1NC(=O)[C@H](Cc2c[nH]c3c(C)cccc23)NC(=O)[C@H]([C@@H](C)O)NC(=O)[C@H](CC(=O)N(C)C)NC(=O)[C@@H](NC(=O)CCOCCOCC[N+](C)(C)C)CSSC[C@@H](C(=O)N[C@@H](Cc2ccc(OCCCCC[N+](C)(C)C)cc2)C(=O)N[C@@H](Cc2ccc3ccccc3c2)C(=O)NC2(C(=O)N[C@@H](CCCCN(C)C(C)=O)C(=O)N[C@@H](CC(N)=O)C(=O)N[C@@H](Cc3cccnc3)C(=O)N(C)CC(=O)N(C)C)CCOCC2)NC1=O [compound 483, cPEG3aCO-C(3)-N(N(Me)2)-T-7MeW-K(NMeAc)-C(3)-TMAPF-2Nal-THP-K(NMeAc)-N-3Pya-Sar-CON(Me)2] ({Me3N+(CH2)2O(CH2)2O(CH2)2CO}-CD(NMe2)T[Trp(7-Me)][Lys(Me)](Ac)CY(X3)[2Nal][Thp][Lys(Me)](Ac)N[3Pal][Sar]-NMe2; disulfide 1-6)	3.8	165
CC(=O)N(C)CCCC[C@@H]1NC(=O)[C@H](Cc2c[nH]c3c(C)cccc23)NC(=O)[C@H]([C@@H](C)O)NC(=O)[C@H](CC(=O)N(C)C)NC(=O)[C@@H](NC(=O)CCOCCOCC[N+](C)(C)C)C(C)(C)SSC(C)(C)[C@@H](C(=O)N[C@@H](Cc2ccc(-n3cc(CCCCCCC[N+](C)(C)C)nn3)cc2)C(=O)N[C@@H](Cc2ccc3ccccc3c2)C(=O)NC2(C(=O)N[C@@H](CCCCN(C)C(C)=O)C(=O)N[C@@H](CC(N)=O)C(=O)N[C@@H](Cc3cccnc3)C(=O)N(C)CC(=O)N(C)C)CCOCC2)NC1=O [compound 486, cPEG3aCO-Pen(3)-N(N(Me)2)-T-7MeW-K(NMeAc)-Pen(3)-F(4TzlTMA7)-2Nal-THP-K(NMeAc)-N-3Pya-Sar-CON(Me)2] ({Me3N+(CH2)2O(CH2)2O(CH2)2CO}-[Pen]D(NMe2)T[Trp(7-Me)][Lys(Me)](Ac)[Pen][X6][2Nal][Thp][Lys(Me)](Ac)N[3Pal][Sar]-NMe2; disulfide 1-6)	4.4	164
CC(=O)N(C)CCCC[C@H](NC(=O)C1(NC(=O)[C@H](Cc2ccc3ccccc3c2)NC(=O)[C@H](Cc2ccc(OCCCCC[N+](C)(C)C)cc2)NC(=O)[C@H]2NC(=O)[C@H](CC(C)C)NC(=O)[C@H](Cc3c[nH]c4c(C)cccc34)NC(=O)[C@H]([C@@H](C)O)NC(=O)[C@H](CC(=O)N(C)C)NC(=O)[C@@H](NC(=O)CCOCCOCC[N+](C)(C)C)C(C)(C)SSC2(C)C)CCOCC1)C(=O)N[C@@H](CC(N)=O)C(=O)N[C@@H](Cc1cccnc1)C(=O)N(C)CC(=O)N(C)C [compound 489, cPEG3aCO-Pen(3)-N(N(Me)2)-T-7MeW-L-Pen(3)-TMAPF-2Nal-THP-K(NMeAc)-N-3Pya-Sar-CON(Me)2] ({Me3N+(CH2)2O(CH2)2O(CH2)2CO}-[Pen]D(NMe2)T[Trp(7-Me)]L[Pen]Y(X3)[2Nal][Thp][Lys(Me)](Ac)N[3Pal][Sar]-NMe2; disulfide 1-6)	3.7	164
CC(=O)NCCCC[C@@H]1NC(=O)[C@H](Cc2c[nH]c3c(C)cccc23)NC(=O)[C@H]([C@@H](C)O)NC(=O)[C@H](CC(N)=O)NC(=O)[C@@H](NC(=O)COCCOCCNC(=O)COCCOCCNC(=O)CCCc2ccc(I)cc2)C(C)(C)SSC(C)(C)[C@@H](C(=O)N[C@@H](Cc2ccc(OCCCCC[N+](C)(C)C)cc2)C(=O)N[C@@H](Cc2ccc3ccccc3c2)C(=O)NC2(C(=O)N[C@@H](CCCCNC(C)=O)C(=O)N[C@@H](CC(N)=O)C(=O)N[C@@H](Cc3cccnc3)C(=O)N(C)CC(N)=O)CCOCC2)NC1=O [compound 491, IPBPEG2PEG2CO-Pen(3)-N-T-7MeW-K(Ac)-Pen(3)-TMAPF-2Nal-THP-K(Ac)-N-3Pya-Sar-CONH2]	8.3	168
CC(=O)N(C)CCCC[C@H](NC(=O)C1(NC(=O)[C@H](Cc2ccc3ccccc3c2)NC(=O)[C@H](Cc2ccc(OCCCCC[N+](C)(C)C)cc2)NC(=O)[C@H]2NC(=O)[C@H](C)NC(=O)[C@H](Cc3c[nH]c4c(C)cccc34)NC(=O)[C@H]([C@@H](C)O)NC(=O)[C@H](CC(=O)N(C)C)NC(=O)[C@@H](NC(=O)CCOCCOCC[N+](C)(C)C)C(C)(C)SSC2(C)C)CCOCC1)C(=O)N[C@@H](CC(N)=O)C(=O)N[C@@H](Cc1cccnc1)C(=O)N(C)CC(=O)N(C)C [compound 492, cPEG3aCO-Pen(3)-N(N(Me)2)-T-7MeW-A-Pen(3)-TMAPF-2Nal-THP-K(NMeAc)-N-3Pya-Sar-CON(Me)2] ({Me3N+(CH2)2O(CH2)2O(CH2)2CO}-[Pen]D(NMe2)T[Trp(7-Me)]A[Pen]Y(X3)[2Nal][Thp][Lys(Me)](Ac)N[3Pal][Sar]-NMe2; disulfide 1-6)	6.4	165
CC(=O)N(C)CCCC[C@@H]1NC(=O)[C@H](Cc2c[nH]c3c(C)cccc23)NC(=O)[C@H](C)NC(=O)[C@H](CC(=O)N(C)C)NC(=O)[C@@H](NC(=O)CCOCCOCC[N+](C)(C)C)C(C)(C)SSC(C)(C)[C@@H](C(=O)N[C@@H](Cc2ccc(OCCCCC[N+](C)(C)C)cc2)C(=O)N[C@@H](Cc2ccc3ccccc3c2)C(=O)NC2(C(=O)N[C@@H](CCCCN(C)C(C)=O)C(=O)N[C@@H](CC(N)=O)C(=O)N[C@@H](Cc3cccnc3)C(=O)N(C)CC(=O)N(C)C)CCOCC2)NC1=O [compound 494, cPEG3aCO-Pen(3)-N(N(Me)2)-A-7MeW-K(NMeAc)-Pen(3)-TMAPF-2Nal-THP-K(NMeAc)-N-3Pya-Sar-CON(Me)2] ({Me3N+(CH2)2O(CH2)2O(CH2)2CO}-[Pen]D(NMe2)A[Trp(7-Me)][Lys(Me)](Ac)[Pen]Y(X3)[2Nal][Thp][Lys(Me)](Ac)N[3Pal][Sar]-NMe2; disulfide 1-6)	12	133

Now from value to compound:

IC50 (IL-23R) [nM]	EPSA [1] [A^2]	Compound
3.1	163	CC(=O)N(C)CCCC[C@@H]1NC(=O)[C@H](Cc2c[nH]c3c(C)cccc23)NC(=O)[C@H]([C@@H](C)O)NC(=O)[C@H](CC(=O)N(C)C)NC(=O)[C@@H](NC(=O)CCOCCOCC[N+](C)(C)C)C(C)(C)SSC(C)(C)[C@@H](C(=O)N[C@@H](Cc2ccc(OCCCCC[N+](C)(C)C)cc2)C(=O)N[C@@H](Cc2ccc3ccccc3c2)C(=O)NC2(C(=O)N[C@@H](CCCCN(C)C(C)=O)C(=O)N[C@@H](CC(N)=O)C(=O)N[C@@H](Cc3cccnc3)C(=O)N(C)CC(=O)N(C)C)CCOCC2)NC1=O [compound 484, cPEG3aCO-C(3)-N(N(Me)2)-T-7MeW-K(NMeAc)-Pen(3)-TMAPF-2Nal-THP-K(NMeAc)-N-3Pya-Sar-CON(Me)2] ({Me3N+(CH2)2O(CH2)2O(CH2)2CO}-[Pen]D(NMe2)T[Trp(7-Me)][Lys(Me)](Ac)[Pen]Y(X3)[2Nal][Thp][Lys(Me)](Ac)N[3Pal][Sar]-NMe2; disulfide 1-6)
3.4	164	CC(=O)N(C)CCCC[C@H](NC(=O)[C@H](CC(C)C)NC(=O)[C@H](Cc1ccc2ccccc2c1)NC(=O)[C@H](Cc1ccc(OCCCCC[N+](C)(C)C)cc1)NC(=O)[C@H]1NC(=O)[C@H](CCCCN(C)C(C)=O)NC(=O)[C@H](Cc2c[nH]c3c(C)cccc23)NC(=O)C([C@@H](C)O)NC(=O)[C@H](CC(=O)N(C)C)NC(=O)[C@@H](NC(=O)CCOCCOCC[N+](C)(C)C)C(C)(C)SSC1(C)C)C(=O)N[C@@H](CC(N)=O)C(=O)N[C@@H](Cc1cccnc1)C(=O)N(C)CC(=O)N(C)C (stereo partly drawn) [compound 487, cPEG3aCO-Pen(3)-N(N(Me)2)-T-7MeW-K(NMeAc)-Pen(3)-TMAPf-2Nal-L-K(NMeAc)-N-3Pya-Sar-CON(Me)2] ({Me3N+(CH2)2O(CH2)2O(CH2)2CO}-[Pen]D(NMe2)[ξThr(3R)][Trp(7-Me)][Lys(Me)](Ac)[Pen]Y(X3)[2Nal]L[Lys(Me)](Ac)N[3Pal][Sar]-NMe2; disulfide 1-6)
5.7	165	CC(=O)N(C)CCCC[C@H](NC(=O)[C@H](C)NC(=O)[C@H](Cc1ccc2ccccc2c1)NC(=O)[C@H](Cc1ccc(OCCCCC[N+](C)(C)C)cc1)NC(=O)[C@H]1NC(=O)[C@H](CCCCN(C)C(C)=O)NC(=O)[C@H](Cc2c[nH]c3c(C)cccc23)NC(=O)C([C@@H](C)O)NC(=O)[C@H](CC(=O)N(C)C)NC(=O)[C@@H](NC(=O)CCOCCOCC[N+](C)(C)C)C(C)(C)SSC1(C)C)C(=O)N[C@@H](CC(N)=O)C(=O)N[C@@H](Cc1cccnc1)C(=O)N(C)CC(=O)N(C)C (stereo partly drawn) [compound 488, cPEG3aCO-Pen(3)-N(N(Me)2)-T-7MeW-K(NMeAc)-Pen(3)-TMAPf-2Nal-A-K(NMeAc)-N-3Pya-Sar-CON(Me)2] ({Me3N+(CH2)2O(CH2)2O(CH2)2CO}-[Pen]D(NMe2)[ξThr(3R)][Trp(7-Me)][Lys(Me)](Ac)[Pen]Y(X3)[2Nal]A[Lys(Me)](Ac)N[3Pal][Sar]-NMe2; disulfide 1-6)
